First the molecules themselves.
B2: Estrogen receptor α (ERα) (receptor, UniProt P03372 1-595, looked up)
chain: MTMTLHTKASGMALLHQIQGNELEPLNRPQLKIPLERPLGEVYLDSSKPAVYNYPEGAAYEFNAAAAANAQVYGQTGLPYGPGSEAAAFGSNGLGGFPPLNSVSPSPLMLLHPPPQLSPFLQPHGQQVPYYLENEPSGYTVREAGPPAFYRPNSDNRRQGGRERLASTNDKGSMAMESAKETRYCAVCNDYASGYHYGVWSCEGCKAFFKRSIQGHNDYMCPATNQCTIDKNRRKSCQACRLRKCYEVGMMKGGIRKDRRGGRMLKHKRQRDDGEGRGEVGSAGDMRAANLWPSPLMIKRSKKNSLALSLTADQMVSALLDAEPPILYSEYDPTRPFSEASMMGLLTNLADRELVHMINWAKRVPGFVDLTLHDQVHLLECAWLEILMIGLVWRSMEHPGKLLFAPNLLLDRNQGKCVEGMVEIFDMLLATSSRFRMMNLQGEEFVCLKSIILLNSGVYTFLSSTLKSLEEKDHIHRVLDKITDTLIHLMAKAGLTLQQQHQRLAQLLLILSHIRHMSNKGMEHLYSMKCKNVVPLYDLLLEMLDAHRLHAPTSRGGASVEETDQSHLATAGSTSSHSLQKYYITGEAEGFPATV
notes: Endogenous ERα in MCF-7 nuclear extract or cell lysate; also called ERalpha

The subject of experiment [1] is ERα complex with KDM4B and SRC-3. The protocol:
(§1) Using total RNA derived from individual cells recovered over time, qPCR was carried out. […] Using total RNA prepared from the treated cells, qPCR was carried out. […] Using the nucleus extract, immunoprecipitation and immunoblotting were carried out.
The obtained cells were immunostained with anti-FLAG antibodies. Representative images are shown.
(§2) Total RNA was prepared from the cells treated with various drugs, and qPCR was carried out.
Immunoprecipitation and immunoblotting were carried out according to the method described in Johmura et al., Molecular Cell 55: 73-84, 2014. The cells were dissolved in a TBSN buffer (20 mM Tris-Cl (pH 8.0), 150 mM NaCl, 0.5% NP-40, 5 mM EGTA, 1.5 mM EDTA, and 0.5 mM Na3VO4). The obtained cell lysate was centrifuged at 4° C. at 15,000×g for 20 minutes, and was then used in immunoprecipitation using an antibody.
Regarding immunoprecipitation of ERα and KDM4B, a nuclear extract was prepared according to the method described in Hirokawa et al., Cancer Res. 74: 3880-3889, 2014. Cell pellets were suspended in buffer A (10 mM Hepes-KOH pH 7.9, 10 mM KCl, 1.5 mM MgCl2, 0.5 mM DTT, 0.5 mM PMSF, and protease inhibitor cocktail (Nakalai Tesque)) having five times the volume of the cell pellets, and the suspension was then incubated on ice for 5 minutes. Thereafter, the cells were centrifuged at 4° C. at 500×g for 5 minutes, and the obtained cell pellets were then suspended in buffer A having two times the volume of the cell pellets for homogenization. The homogenized cell suspension was centrifuged at 4° C. at 4,000×g for 5 minutes, and a cell nucleus was recovered in a precipitate. To the recovered nucleus, an equal amount of buffer B (20 mM Hepes-KOH pH 7.9, 600 mM KCl, 1.5 mM MgCl2, 0.2 mM EDTA, 25% glycerol, 0.5 mM DTT, 0.5 mM PMSF, and protease inhibitor cocktail) was added and suspended, and the obtained mixture was then blended at 4° C. for 30 minutes, using a rotator. The nuclear extract was centrifuged at 4° C. at 16,000×g for 15 minutes, and was then recovered in a supernatant. The nuclear extract was dialyzed against buffer C (20 mM Hepes-KOH pH 7.9, 100 mM KCl, 0.2 mM EDTA, 20% glycerol, 0.5 mM DTT, and 0.5 mM PMSF). After completion of the dialysis, the nuclear extract was centrifuged at 4° C. at 16,000×g for 30 minutes, and the remaining precipitate was then eliminated.
A protein (20 to 50 μg) was separated from the total cell lysate by SDS-PAGE, and was then transferred into a PVDF membrane (Millipore), which was then used in immunoblotting using various types of antibodies.

In experiment [2] the test system is ERα-dependent transcription. Description: qPCR of ERα target gene transcripts (EBAG9, GREB1) in MCF-7 cells. The conditions noted are these: for effect of removing Fbxo22 on the antagonistic activity: MCF-7 expressing Dox-induced shRNAs, E2 6 h then drug 12 h. The format is cell-based, human. As to the method: as §1
Using total RNA prepared from the cells over time, qPCR was carried out.
as §2
The cells were washed with PBS three times, and were then cultured in phenol red-non-added DMEM (supplemented with 5% charcoal-stripped FBS) for 72 hours.
Quantitative RT-PCR was carried out according to the method described in Johmura et al., Molecular Cell 55: 73-84, 2014. Total RNA was extracted using ISOGEN II (Wako), and using this as a template, cDNA was synthesized using SuperScript II cDNA synthesis kit (Invitrogen). PCR amplification was carried out in a 96-well optical reaction plate, using Power SYBR Green PCR Master Mix (Applied Biosystems). The relative expression ratio of individual genes was normalized with respect to the expression level of GAPDH.
A general note: Quantitative PCR measures a nucleic acid by following its amplification.

In experiment [3] the test system is ERα. The experiment in a line: ChIP-Seq analysis of ERα binding in MCF-7 cells. The format is cell-based, human. To be noted: 2 hours, E2 line = E2 (10 nM), 4-OHT line = E2+4-OHT. From the text: Thereafter, DNA was extracted using a DNA purification column.
In experiment [4] the target is T1, KDM4B (UniProt O94953 1-1096).
T1 construct: Endogenous KDM4B in MCF-7 nuclear extract or cell lysate; also called histone lysine demethylase KDM4B
T1 sequence (looked up): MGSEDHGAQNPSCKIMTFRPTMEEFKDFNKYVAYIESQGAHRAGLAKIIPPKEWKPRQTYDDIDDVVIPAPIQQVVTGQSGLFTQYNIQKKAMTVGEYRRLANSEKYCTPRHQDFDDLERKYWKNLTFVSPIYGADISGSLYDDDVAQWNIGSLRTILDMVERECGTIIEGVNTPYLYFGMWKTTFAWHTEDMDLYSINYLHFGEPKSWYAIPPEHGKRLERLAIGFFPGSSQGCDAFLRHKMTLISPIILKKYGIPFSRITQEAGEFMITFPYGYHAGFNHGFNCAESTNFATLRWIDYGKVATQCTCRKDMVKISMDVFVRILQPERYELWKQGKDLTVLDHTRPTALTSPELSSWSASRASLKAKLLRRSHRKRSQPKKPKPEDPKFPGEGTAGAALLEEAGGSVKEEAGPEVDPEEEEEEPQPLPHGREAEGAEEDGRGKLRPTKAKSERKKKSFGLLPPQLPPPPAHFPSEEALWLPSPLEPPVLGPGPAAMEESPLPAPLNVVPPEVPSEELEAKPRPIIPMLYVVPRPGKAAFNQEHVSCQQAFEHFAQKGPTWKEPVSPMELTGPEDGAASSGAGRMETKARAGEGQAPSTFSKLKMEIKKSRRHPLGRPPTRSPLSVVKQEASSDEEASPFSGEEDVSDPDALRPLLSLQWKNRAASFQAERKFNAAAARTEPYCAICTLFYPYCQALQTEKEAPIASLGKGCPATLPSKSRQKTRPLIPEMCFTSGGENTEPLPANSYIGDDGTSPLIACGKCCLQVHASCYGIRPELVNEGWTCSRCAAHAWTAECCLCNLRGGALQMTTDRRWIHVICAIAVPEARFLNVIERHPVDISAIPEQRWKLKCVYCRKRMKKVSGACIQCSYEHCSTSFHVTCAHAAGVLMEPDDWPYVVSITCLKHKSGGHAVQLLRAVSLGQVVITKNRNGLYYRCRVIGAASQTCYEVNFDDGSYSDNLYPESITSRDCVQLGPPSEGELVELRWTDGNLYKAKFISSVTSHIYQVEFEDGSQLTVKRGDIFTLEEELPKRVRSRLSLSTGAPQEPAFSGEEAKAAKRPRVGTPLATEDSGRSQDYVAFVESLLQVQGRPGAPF
The experiment in a line: co-IP and immunoblot, E2-depleted MCF-7 cells with MG132 and 0.1, 1 or 10 nM E2 (FIG. 3I). Background: A western blot detects proteins with antibodies after separation by electrophoresis.

The target in experiment [5] is B2. The experiment in a line: anti-FLAG co-IP and immunoblot, MCF-7 cells expressing FLAG-Fbxo22 Wt or domain-deficient mutants (FIG. 3G).
Experiment [6] deals with T1, KDM4B. Description: co-IP (IP: ER) and immunoblot, MCF-7 nuclear extract after E2 (FIG. 2B).
The target of experiment [7] is T2, N-CoR repressor (UniProt O75376 1-2440, limits assumed).
T2 construct: Endogenous corepressor in MCF-7 nuclear extract
The experiment in a line: co-IP and immunoblot, control MCF-7 nuclear extract after E2 then 4-OHT (FIG. 5B).

Data on six molecules can be found in US20220120753A1, “METHOD FOR DETERMINING PROGNOSIS OF CANCER” (The University of Tokyo, priority 2018, published 2022).

Peptide text beside a SMILES is read from it. * marks the point of attachment. Cbz = O=C(OCc1ccccc1)*

T2 sequence (O75376 whole entry): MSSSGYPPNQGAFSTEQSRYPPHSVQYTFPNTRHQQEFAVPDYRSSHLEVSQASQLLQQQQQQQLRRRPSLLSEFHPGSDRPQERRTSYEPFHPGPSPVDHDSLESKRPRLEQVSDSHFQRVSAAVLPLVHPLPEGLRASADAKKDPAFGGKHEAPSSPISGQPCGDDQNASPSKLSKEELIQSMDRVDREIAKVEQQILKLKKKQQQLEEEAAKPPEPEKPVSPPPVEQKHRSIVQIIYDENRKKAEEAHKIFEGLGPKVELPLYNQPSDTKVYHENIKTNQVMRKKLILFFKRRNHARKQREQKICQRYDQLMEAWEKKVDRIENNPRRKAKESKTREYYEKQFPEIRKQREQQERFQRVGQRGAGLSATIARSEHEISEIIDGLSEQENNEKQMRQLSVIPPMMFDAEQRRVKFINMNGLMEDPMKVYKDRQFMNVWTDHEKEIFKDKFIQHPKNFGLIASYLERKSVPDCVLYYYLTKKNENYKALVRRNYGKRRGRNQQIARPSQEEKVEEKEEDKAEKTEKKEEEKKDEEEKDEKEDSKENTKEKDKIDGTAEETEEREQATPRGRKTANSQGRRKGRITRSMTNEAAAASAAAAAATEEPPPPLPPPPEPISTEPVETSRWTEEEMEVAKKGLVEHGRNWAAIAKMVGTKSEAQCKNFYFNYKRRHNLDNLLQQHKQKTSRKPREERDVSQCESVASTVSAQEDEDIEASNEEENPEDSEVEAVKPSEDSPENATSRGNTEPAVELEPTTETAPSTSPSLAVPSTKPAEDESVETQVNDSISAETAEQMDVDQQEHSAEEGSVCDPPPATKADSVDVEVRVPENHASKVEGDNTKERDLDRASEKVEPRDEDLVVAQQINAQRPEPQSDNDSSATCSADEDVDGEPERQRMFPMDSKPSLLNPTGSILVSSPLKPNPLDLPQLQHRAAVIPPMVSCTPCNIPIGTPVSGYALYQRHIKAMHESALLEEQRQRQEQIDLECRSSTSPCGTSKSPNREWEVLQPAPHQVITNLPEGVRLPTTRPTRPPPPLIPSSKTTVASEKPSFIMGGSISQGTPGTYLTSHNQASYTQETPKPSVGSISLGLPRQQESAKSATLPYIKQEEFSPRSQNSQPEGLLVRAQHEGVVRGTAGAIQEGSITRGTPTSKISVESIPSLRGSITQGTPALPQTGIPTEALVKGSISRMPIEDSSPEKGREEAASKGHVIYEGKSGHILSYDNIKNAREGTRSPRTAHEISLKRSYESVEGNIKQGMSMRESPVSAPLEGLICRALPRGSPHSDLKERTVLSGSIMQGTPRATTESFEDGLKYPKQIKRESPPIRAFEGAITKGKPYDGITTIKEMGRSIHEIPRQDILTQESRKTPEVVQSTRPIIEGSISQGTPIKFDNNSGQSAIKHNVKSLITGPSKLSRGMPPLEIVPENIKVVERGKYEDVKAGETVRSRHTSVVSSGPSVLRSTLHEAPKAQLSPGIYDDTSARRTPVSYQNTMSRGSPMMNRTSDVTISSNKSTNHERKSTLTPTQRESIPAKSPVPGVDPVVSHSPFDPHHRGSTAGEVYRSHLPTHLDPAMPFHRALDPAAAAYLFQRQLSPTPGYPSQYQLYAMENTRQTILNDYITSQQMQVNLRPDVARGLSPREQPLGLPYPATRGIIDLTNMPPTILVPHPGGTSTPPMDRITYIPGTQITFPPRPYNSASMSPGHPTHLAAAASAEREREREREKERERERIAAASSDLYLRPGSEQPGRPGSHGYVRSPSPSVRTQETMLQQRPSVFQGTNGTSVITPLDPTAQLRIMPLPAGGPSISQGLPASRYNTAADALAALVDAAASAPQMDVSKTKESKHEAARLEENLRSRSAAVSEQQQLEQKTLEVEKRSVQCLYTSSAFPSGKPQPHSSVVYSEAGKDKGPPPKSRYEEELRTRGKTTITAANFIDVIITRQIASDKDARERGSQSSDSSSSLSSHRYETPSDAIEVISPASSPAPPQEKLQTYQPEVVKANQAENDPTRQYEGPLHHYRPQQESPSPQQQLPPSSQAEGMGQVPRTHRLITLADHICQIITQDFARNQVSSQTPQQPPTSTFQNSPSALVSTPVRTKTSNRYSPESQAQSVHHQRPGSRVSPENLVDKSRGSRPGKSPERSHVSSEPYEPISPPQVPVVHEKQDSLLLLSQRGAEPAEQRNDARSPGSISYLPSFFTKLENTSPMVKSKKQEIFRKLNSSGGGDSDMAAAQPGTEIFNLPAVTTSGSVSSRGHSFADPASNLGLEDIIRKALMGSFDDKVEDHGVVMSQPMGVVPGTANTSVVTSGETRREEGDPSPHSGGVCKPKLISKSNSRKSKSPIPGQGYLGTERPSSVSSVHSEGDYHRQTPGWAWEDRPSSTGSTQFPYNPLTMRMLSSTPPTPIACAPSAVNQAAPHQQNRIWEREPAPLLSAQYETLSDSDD

For the molecule `C[C@]12CC[C@@H]3c4ccc(O)cc4C[C@@H](CCCCCCCCC[S+]([O-])CCCC(F)(F)C(F)(F)F)[C@H]3[C@@H]1CC[C@@H]2O` (stereo partly shown) [Fulvestrant], the “need of Fbxo22 for the dynamics of cofactors in treated cells” value in experiment [1] (MCF-7, E2 plus drug) is listed as “not necessary”. For the same molecule, in experiment [2], the “effect of removing Fbxo22 on the antagonistic activity” value is recorded as “no effects”.

`CC(C)C[C@@H](C=O)NC(=O)[C@H](CC(C)C)NC(=O)[C@H](CC(C)C)NC(=O)OCc1ccccc1` [MG132] (Cbz-Leu-Leu-Leu-aldehyde): the “dynamics of cofactors (complex dissociation, N-CoR binding) after 4-OHT” value in experiment [1] (MCF-7, E2+4-OHT+MG132) is given as “suppressed”. In experiment [1] (MCF-7, E2 depletion plus proteasome inhibitor), the “dissociation of KDM4B and SRC-3 from ERα by elimination of E2” value is given as “suppressed”. The “E2-induced transcriptional activity of EBAG9 and GREB1 after removal of E2” value in experiment [2] (MCF-7, E2 removed from medium, proteasome inhibitor added) is listed as “recovered”. The “transcript levels of EBAG9 and GREB1 after treatment with 4-OHT” value in experiment [2] (MCF-7, E2 then 4-OHT, in the presence of MG132 (10 μg/ml) compared with absence) was “maintained at high levels”.

For `C[C@]12CC[C@@H]3c4ccc(O)cc4CC[C@H]3[C@@H]1CC[C@@H]2O` [E2, Estradiol], the “ERα accumulation peaks detected” value in experiment [3] (Fbxo22-depleted MCF-7 cells) is given as 23,213; in experiment [3] (wild-type/control MCF-7 cells) it was 1,264.

`CN(C)CCOc1ccc(/C(=C(/CCCl)c2ccccc2)c2ccccc2)cc1` [Toremifene]: the “effect of removing Fbxo22 on the antagonistic activity” value in experiment [2] is “effects similar to those on 4-OHT”.

B1: wild-type FLAG-Fbxo22 (Wt) (other)
chain: MEPVGCCGECRGSSVDPRSTFVLSNLAEVVERVLTFLPAKALLRVACVCRLWRECVRRVLRTHRSVTWISAGLAEAGHLEGHCLVRVVAEELENVRILPHTVLYMADSETFISLEECRGHKRARKRTSMETALALEKLFPKQCQVLGIVTPGIVVTPMGSGSNRPQEIEIGESGFALLFPQIEGIKIQPFHFIKDPKNLTLERHQLTEVGLLDNPELRVVLVFGYNCCKVGASNYLQQVVSTFSDMNIILAGGQVDNLSSLTSEKNPLDIDASGVVGLSFSGHRIQSATVLLNEDVSDEKTAEAAMQRLKAANIPEHNTIGFMFACVGRGFQYYRAKGNVEADAFRKFFPSVPLFGFFGNGEIGCDRIVTGNFILRKCNEVKDDDLFHSYTTIMALIHLGSSK
notes: Dox-induced expression in MCF-7 cells; The tag is placed first by the order in the name; not shown: FLAG tag
With B1, the binding result in experiment [4] and in experiment [5] was “binds” throughout.

Regarding B2, the binding result in experiment [6] and in experiment [7] was “binds” each time.
